Like-named read-outs stand apart in the source and are kept apart here.
How the values were obtained:
[1] = system: MV-4-11; assay: Tumor cell proliferation inhibition (CellTiter-Meiluncell Luminescent Cell Viability Assay); assay type: cell-based; conditions: Homo sapiens, 96 hours; for inhibition at 0.01 µM: MV4-11, 10 nM, read-out: Inhibition Rate at 10 nM (%); for inhibition at 0.5 µM: MV4-11, 500 nM, read-out: Inhibition Rate at 500 nM (%)
In short: (§1)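 Following overnight seeding, tumor cells received serial compound dilutions to final levels that included 10 nM and 500 nM. Viability was assessed by luminescence at the end of the specified exposure time. Cultures were kept at 37°C with 5% CO2.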

[2] = system: SW620; assay: as above; assay type: cell-based; conditions: Homo sapiens, 96 hours, Table I-6, IRAK4 inhibitors; for inhibition at 0.01 µM: SW-620, 10 nM, read-out: Inhibition Rate at 10 nM (%); for inhibition at 0.5 µM: SW-620, 500 nM, read-out: Inhibition Rate at 500 nM (%)
In short: as §1

[3] = system: JEKO-1; assay: as above; assay type: cell-based; conditions: Homo sapiens, 96 hours, Table I-6, IRAK4 inhibitors; for inhibition at 0.01 µM: 10 nM, read-out: Inhibition Rate at 10 nM (%); for inhibition at 0.5 µM: 500 nM, read-out: Inhibition Rate at 500 nM (%)
In short: as §1

[4] = system: MM.1S; assay: as above; assay type: cell-based; conditions: Homo sapiens, MM1.S, MM.1S, 96 hours; for inhibition at 0.01 µM: 10 nM, read-out: Inhibition Rate at 10 nM (%); for inhibition at 0.5 µM: 500 nM, read-out: Inhibition Rate at 500 nM (%)
In short: as §1

[5] = biological target: T1, human Cereblon WT GST-tagged protein (Homo sapiens, UniProt Q96SW2); assay: CRBN-binding affinity, HTRF (CEREBLON BINDING kit); conditions: for inhibition at 0.5 µM: read-out: Inhibition Rate at 0.5 µM (%); for inhibition at 2 µM: read-out: Inhibition Rate at 2 µM (%)
T1 construct: purchased CISBIO 64BDCRBNPEH
T1 sequence (Q96SW2 whole entry): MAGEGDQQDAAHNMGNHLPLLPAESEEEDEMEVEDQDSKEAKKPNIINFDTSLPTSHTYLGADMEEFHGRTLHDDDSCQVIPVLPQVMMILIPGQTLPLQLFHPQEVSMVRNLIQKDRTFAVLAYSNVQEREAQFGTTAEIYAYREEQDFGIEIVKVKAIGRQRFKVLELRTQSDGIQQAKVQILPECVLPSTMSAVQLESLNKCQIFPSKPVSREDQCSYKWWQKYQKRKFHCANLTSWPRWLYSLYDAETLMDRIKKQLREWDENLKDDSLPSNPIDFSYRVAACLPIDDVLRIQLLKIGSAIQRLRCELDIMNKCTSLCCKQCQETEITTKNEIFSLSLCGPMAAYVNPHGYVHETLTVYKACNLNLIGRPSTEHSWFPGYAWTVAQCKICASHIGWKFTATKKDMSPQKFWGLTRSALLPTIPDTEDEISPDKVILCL
In short: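 Readout is homogeneous time-resolved fluorescence, measuring displacement of a thalidomide-red tracer from GST-tagged Cereblon detected by a europium anti-GST antibody. Compounds were tested at final 2 µM and 0.5 µM after dilution in diluent #9 (1X).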

[6] = biological target: T2, CDK9 (Homo sapiens, UniProt P50750); assay: Western blot, target protein degradation in MDA-MB-231 Cell; assay type: cell-based; conditions: substrate protein remaining %, treated at 500 nM and 50 nM, 24 hours
T2 construct: endogenous in cells; host or cells: MDA-MB-231
T2 sequence (P50750 whole entry): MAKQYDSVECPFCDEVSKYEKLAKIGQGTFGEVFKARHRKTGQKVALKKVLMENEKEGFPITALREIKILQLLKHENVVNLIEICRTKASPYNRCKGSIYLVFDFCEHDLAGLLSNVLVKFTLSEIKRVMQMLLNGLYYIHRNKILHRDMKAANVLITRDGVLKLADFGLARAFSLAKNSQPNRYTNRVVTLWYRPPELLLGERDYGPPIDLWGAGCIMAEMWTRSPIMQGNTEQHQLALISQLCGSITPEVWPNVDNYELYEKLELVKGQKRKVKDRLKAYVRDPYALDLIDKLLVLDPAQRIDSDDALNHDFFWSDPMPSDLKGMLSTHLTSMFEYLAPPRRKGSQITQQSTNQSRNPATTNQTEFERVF
Procedure: Conventional Western blot assay was performed to evaluate the effects of the compounds of the present disclosure on the expression of target proteins in cells.
(1) Cell Seeding and Protein Harvesting: The selected cells were processed according to the cell seeding procedure and protein harvesting procedure in Table II-2. Table II-2 Cell Seeding and Protein Harvesting Procedures
(2) To the collected supernatant, 5X SDS sample loading buffer was added, followed by denaturation at 95°C for 5 minutes. The denatured samples were then separated by SDS-PAGE electrophoresis on a polyacrylamide gel. Proteins were transferred to a nitrocellulose membrane (0.45 µm NC membrane), blocked with blocking buffer at room temperature for 1 hour, and subjected to antibody incubation and development procedures according to the antibody manufacturer's instructions (Cell Signaling Technology).
Half-Maximal Degradation Concentration value (the drug concentration required for degrading proteins by 50%, abbreviated as DC50) reads method: comparing the grayscale values of Western blot bands from drug-treated samples with those from blank DMSO-treated controls, and identifying the drug concentration range at which the grayscale value is half that of the DMSO-treated control bands.
DC50 values can be calculated using ImageJ software to measure grayscale values of Western blot bands from drug-treated samples. The concentration-response curve is fitted to estimate the drug concentration corresponding to half the grayscale value.
Target protein remaining (%) refers to the percentage of target protein remaining in cells after treatment with protein degrader compounds.
Calculation method for target protein remaining (%): Use ImageJ software to measure grayscale values of Western blot bands from drug (protein degrader)-treated samples. The grayscale value of drug-treated bands is divided by that of internal control protein bands, and the resulting quotient is normalized to obtain the relative percentage of remaining target protein after protein degrader treatment. Target protein degradation rate(%) = 1−target protein remaining(%). [formula]

Row | inhibition at 0.5 µM [5] [%] | inhibition at 2 µM [5] [%] | Compound | Degradation of substrate protein CDK9 [6] | inhibition at 0.01 µM ([1]; Table I-7, CDK9 inhibitors) [%] | inhibition at 0.5 µM ([1]; Table I-7, CDK9 inhibitors) [%] | other results
1 | 30 to 40 | 60 to 80 | O=C1CCC(N2Cc3cc(CN4CCC(n5cc(NC(=O)c6coc(-c7ccnc(NCC8CC8)c7)n6)c(C(F)F)n5)CC4)ccc3C2=S)C(=O)N1 (stereo not drawn) [GT-05286, 2-(2-((cyclopropylmethyl)amino)pyridin-4-yl)-N-(3-(difluoromethyl)-1-(1-((2-(2,6-dioxopiperidin-3-yl)-1-thioxoisoindolin-5-yl)methyl)piperidin-4-yl)-1H-pyrazol-4-yl)oxazole-4-carboxamide] |  |  |  | inhibition at 0.01 µM ([1]; Table I-6, IRAK4 inhibitors): 80 to 100%; inhibition at 0.5 µM ([1]; Table I-6, IRAK4 inhibitors): 80 to 100%; inhibition at 0.01 µM [2]: 60 to 70%; inhibition at 0.5 µM [2]: 70 to 80%; inhibition at 0.01 µM [3]: 10 to 20%; inhibition at 0.5 µM [3]: 80 to 100%; inhibition at 0.01 µM ([4]; Table I-6, IRAK4 inhibitors): 50 to 60%; inhibition at 0.5 µM ([4]; Table I-6, IRAK4 inhibitors): 80 to 100%
2 | 60 to 80 | 80 to 100 | O=C1CCC(N2Cc3cc(CN4CCC(n5cc(NC(=O)c6cnn7ccc(N8C[C@H]9C[C@@H]8CO9)nc67)c(C(F)F)n5)CC4)ccc3C2=S)C(=O)N1 (stereo partly drawn) [GT-05321, 5-((1R,4R)-2-oxa-5-azabicyclo[2.2.1]heptan-5-yl)-N-(3-(difluoromethyl)-1-(1-((2-(2,6-dioxopiperidin-3-yl)-1-thioxoisoindolin-5-yl)methyl)piperidin-4-yl)-1H-pyrazol-4-yl)pyrazolo[1,5-a]pyrimidine-3-carboxamide] |  |  |  | inhibition at 0.01 µM ([1]; Table I-6, IRAK4 inhibitors): 40 to 50%; inhibition at 0.5 µM ([1]; Table I-6, IRAK4 inhibitors): 80 to 100%; inhibition at 0.01 µM [2]: 30 to 40%; inhibition at 0.5 µM [2]: 70 to 80%; inhibition at 0.01 µM [3]: 5 to 10%; inhibition at 0.5 µM [3]: 40 to 50%; inhibition at 0.01 µM ([4]; Table I-6, IRAK4 inhibitors): 30 to 40%; inhibition at 0.5 µM ([4]; Table I-6, IRAK4 inhibitors): 80 to 100%
3 | 53 to 60 | 80 to 100 | N#CC1(CNc2nc(-c3cc(NC4CCN(Cc5ccc6c(c5)CN(C5CCC(=O)NC5=O)C6=S)CC4)ncc3Cl)cs2)CCOCC1 (stereo not drawn) [GT-08681, 4-(((4-(5-chloro-2-((1-((2-(2,6-dioxopiperidin-3-yl)-1-thioxoisoindolin-5-yl)methyl)piperidin-4-yl)amino)pyridin-4-yl)thiazol-2-yl)amino)methyl)tetrahy dro-2H-pyran-4-carbonitrile] | A (0% ≤ substrate protein remaining % ≤ 80%) |  |  | 
4 | 60 to 80 | 80 to 100 | Cn1ncc(-c2nc(NC3CCN(Cc4ccc5c(c4)CN(C4CCC(=O)NC4=O)C5=S)CC3)ncc2Cl)c1CC1CC1 (stereo not drawn) [GT-08682, 3-(5-((4-((5-chloro-4-(5-(cyclopropylmethyl)-1-methyl-1H-pyrazol-4-yl)pyrimidin-2-yl)amino)piperidin-1-yl)methyl)-1-thioxoisoindolin-2-yl)piperidine-2,6-dione] | A (0% ≤ substrate protein remaining % ≤ 80%) | 30 to 40 | 60 to 70 | inhibition at 0.01 µM ([4]; Table I-7, CDK9 inhibitors): 10 to 20%; inhibition at 0.5 µM ([4]; Table I-7, CDK9 inhibitors): 50 to 60%
5 | 40 to 53 | 80 to 100 | N#CC1(CNc2cccc(-c3cc(NC4CCN(Cc5ccc6c(c5)CN(C5CCC(=O)NC5=O)C6=S)CC4)ncc3Cl)n2)CCOCC1 (stereo not drawn) [GT-08683, 4-(((5'-chloro-2'-((1-((2-(2,6-dioxopiperidin-3-yl)-1-thioxoisoindolin-5-yl)methyl)piperidin-4-yl)amino)-[2,4'-bipyridin]-6-yl)amino)methyl)tetrahy dro-2H-pyran-4-carbonitrile] | A (0% ≤ substrate protein remaining % ≤ 80%) | 50 to 60 | 50 to 60 | 
6 | 60 to 80 | 80 to 100 | O=C1CCC(N2Cc3cc(CN4CCN(c5ccc(CC(=O)Nc6cc(C7CCC7)[nH]n6)cc5)CC4)ccc3C2=S)C(=O)N1 (stereo not drawn) [GT-08684, N-(5-cyclobutyl-1H-pyrazol-3-yl)-2-(4-(4-((2-(2,6-dioxopiperidin-3-yl)-1-thioxoisoindolin-5-yl)methyl)piperazin-1-yl)phenyl)acetamide] | A (0% ≤ substrate protein remaining % ≤ 80%) |  |  | 
7 | 53 to 60 | 80 to 100 | N#CC1(CNc2nc(-c3cc(NC4CCN(Cc5cccc6c5CN(C5CCC(=O)NC5=O)C6=S)CC4)ncc3Cl)cs2)CCOCC1 (stereo not drawn) [GT-08685, 4-(((4-(5-chloro-2-((1-((2-(2,6-dioxopiperidin-3-yl)-1-thioxoisoindolin-4-yl)methyl)piperidin-4-yl)amino)pyridin-4-yl)thiazol-2-yl)amino)methyl)tetrahy dro-2H-pyran-4-carbonitrile] | A (0% ≤ substrate protein remaining % ≤ 80%) |  |  | 
8 | 30 to 40 | 60 to 80 | N#CC1(CNc2cccc(-c3cc(NC4CCN(Cc5cccc6c5CN(C5CCC(=O)NC5=O)C6=S)CC4)ncc3Cl)n2)CCOCC1 (stereo not drawn) [GT-08687, 4-(((5'-chloro-2'-((1-((2-(2,6-dioxopiperidin-3-yl)-1-thioxoisoindolin-4-yl)methyl)piperidin-4-yl)amino)-[2,4'-bipyridin]-6-yl)amino)methyl)tetrahy dro-2H-pyran-4-carbonitrile] | A (0% ≤ substrate protein remaining % ≤ 80%) |  |  | 
9 | 60 to 80 | 80 to 100 | O=C1CCC(N2Cc3c(CN4CCN(c5ccc(CC(=O)Nc6cc(C7CCC7)[nH]n6)cc5)CC4)cccc3C2=S)C(=O)N1 (stereo not drawn) [GT-08688, N-(5-cyclobutyl-1H-pyrazol-3-yl)-2-(4-(4-((2-(2,6-dioxopiperidin-3-yl)-1-thioxoisoindolin-4-yl)methyl)piperazin-1-yl)phenyl)acetamide] | A (0% ≤ substrate protein remaining % ≤ 80%) | 40 to 50 | 50 to 60 | 
10 | 53 to 60 | 80 to 100 | N#CC1(CNc2cccc(-c3cc(NC4CCN(Cc5ccc6c(c5)C(=S)N(C5CCC(=O)NC5=O)C6)CC4)ncc3Cl)n2)CCOCC1 (stereo not drawn) [GT-08752, 4-(((5'-chloro-2'-((1-((2-(2,6-dioxopiperidin-3-yl)-3-thioxoisoindolin-5-yl)methyl)piperidin-4-yl)amino)-[2,4'-bipyridin]-6-yl)amino)methyl)tetrahy dro-2H-pyran-4-carbonitrile] | A (0% ≤ substrate protein remaining % ≤ 80%) | 10 to 20 | 70 to 80 | 
11 | 60 to 80 | 80 to 100 | O=C1CCC(N2Cc3ccc(CN4CCN(c5ccc(CC(=O)Nc6cc(C7CCC7)[nH]n6)cc5)CC4)cc3C2=S)C(=O)N1 (stereo not drawn) [GT-08753, N-(5-cyclobutyl-1H-pyrazol-3-yl)-2-(4-(4-((2-(2,6-dioxopiperidin-3-yl)-3-thioxoisoindolin-5-yl)methyl)piperazin-1-yl)phenyl)acetamide] | A (0% ≤ substrate protein remaining % ≤ 80%) |  |  | 

Reference: patent EP4745138A1, “THIO-GLUTARIMIDO ISOINDOLINONE DERIVATIVE, BIFUNCTIONAL PROTEIN DEGRADER CONTAINING SAME, AND USES THEREOF” (Gluetacs Therapeutics (Shanghai) Co., Ltd., priority 2023, dated 2025)
